Like-named read-outs stand apart in the source and are kept apart here.
Experiments:
Nav 1.7 = Nav 1.7 (Homo sapiens (Human), UniProt Q15858); test: in-vitro Nav 1.7 PX data; type: cell-based
Nav 1.5 = Nav 1.5 (Homo sapiens (Human), UniProt Q14524); test: in-vitro Nav 1.5 PX data; conditions: read-out: Nav 1.5 PX IC50
Sequence of Nav 1.5 (Q14524 whole entry): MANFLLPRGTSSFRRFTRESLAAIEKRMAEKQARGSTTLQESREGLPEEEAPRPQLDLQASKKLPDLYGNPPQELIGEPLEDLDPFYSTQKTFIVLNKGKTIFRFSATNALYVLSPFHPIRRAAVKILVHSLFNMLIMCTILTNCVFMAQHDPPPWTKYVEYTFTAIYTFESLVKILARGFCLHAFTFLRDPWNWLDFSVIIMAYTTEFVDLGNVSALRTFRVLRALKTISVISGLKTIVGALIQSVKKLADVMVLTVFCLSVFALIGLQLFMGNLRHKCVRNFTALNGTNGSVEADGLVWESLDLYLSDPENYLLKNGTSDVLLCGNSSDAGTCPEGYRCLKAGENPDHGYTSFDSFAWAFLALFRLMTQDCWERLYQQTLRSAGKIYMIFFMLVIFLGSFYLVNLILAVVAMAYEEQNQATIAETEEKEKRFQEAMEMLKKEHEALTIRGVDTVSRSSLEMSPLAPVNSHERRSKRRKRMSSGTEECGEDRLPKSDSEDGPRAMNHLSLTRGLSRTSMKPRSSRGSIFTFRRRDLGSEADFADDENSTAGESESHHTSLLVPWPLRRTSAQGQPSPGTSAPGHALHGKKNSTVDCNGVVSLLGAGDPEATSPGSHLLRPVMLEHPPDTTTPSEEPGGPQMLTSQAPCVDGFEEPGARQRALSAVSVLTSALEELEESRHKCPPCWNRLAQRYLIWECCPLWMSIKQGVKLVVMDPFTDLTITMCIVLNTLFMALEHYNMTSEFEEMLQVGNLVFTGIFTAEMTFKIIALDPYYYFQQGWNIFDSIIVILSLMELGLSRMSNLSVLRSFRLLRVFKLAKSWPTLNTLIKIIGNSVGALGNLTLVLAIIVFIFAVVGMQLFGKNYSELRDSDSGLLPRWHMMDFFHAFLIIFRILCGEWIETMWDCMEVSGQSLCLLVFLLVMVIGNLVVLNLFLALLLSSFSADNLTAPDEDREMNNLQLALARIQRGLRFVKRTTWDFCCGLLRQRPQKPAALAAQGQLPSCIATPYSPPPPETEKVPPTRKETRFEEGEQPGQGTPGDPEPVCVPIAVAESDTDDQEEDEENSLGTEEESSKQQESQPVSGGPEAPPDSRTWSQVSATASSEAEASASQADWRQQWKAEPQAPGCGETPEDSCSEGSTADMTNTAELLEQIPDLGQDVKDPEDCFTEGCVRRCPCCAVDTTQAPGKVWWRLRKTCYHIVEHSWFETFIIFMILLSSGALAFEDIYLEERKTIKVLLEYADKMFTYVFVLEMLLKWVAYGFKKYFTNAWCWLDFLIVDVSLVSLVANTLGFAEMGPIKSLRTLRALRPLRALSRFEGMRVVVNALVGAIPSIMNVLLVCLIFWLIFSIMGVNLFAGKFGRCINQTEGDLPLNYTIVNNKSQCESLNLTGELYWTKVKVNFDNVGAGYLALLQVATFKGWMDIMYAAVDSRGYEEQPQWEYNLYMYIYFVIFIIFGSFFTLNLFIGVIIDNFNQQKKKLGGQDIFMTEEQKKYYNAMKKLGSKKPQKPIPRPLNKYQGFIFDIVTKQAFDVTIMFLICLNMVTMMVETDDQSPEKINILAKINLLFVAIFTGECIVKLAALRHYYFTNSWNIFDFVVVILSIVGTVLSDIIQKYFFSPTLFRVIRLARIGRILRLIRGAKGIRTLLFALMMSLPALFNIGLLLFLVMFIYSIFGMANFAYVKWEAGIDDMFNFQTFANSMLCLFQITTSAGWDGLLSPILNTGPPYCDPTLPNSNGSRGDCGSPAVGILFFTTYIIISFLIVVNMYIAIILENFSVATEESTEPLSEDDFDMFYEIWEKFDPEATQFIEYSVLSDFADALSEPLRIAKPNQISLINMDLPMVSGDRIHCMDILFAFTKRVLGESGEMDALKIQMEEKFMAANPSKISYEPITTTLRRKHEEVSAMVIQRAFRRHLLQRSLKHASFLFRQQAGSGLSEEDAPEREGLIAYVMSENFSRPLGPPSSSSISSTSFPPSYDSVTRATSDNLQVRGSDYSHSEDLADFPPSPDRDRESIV

Sequence of Nav 1.7 (Q15858 whole entry): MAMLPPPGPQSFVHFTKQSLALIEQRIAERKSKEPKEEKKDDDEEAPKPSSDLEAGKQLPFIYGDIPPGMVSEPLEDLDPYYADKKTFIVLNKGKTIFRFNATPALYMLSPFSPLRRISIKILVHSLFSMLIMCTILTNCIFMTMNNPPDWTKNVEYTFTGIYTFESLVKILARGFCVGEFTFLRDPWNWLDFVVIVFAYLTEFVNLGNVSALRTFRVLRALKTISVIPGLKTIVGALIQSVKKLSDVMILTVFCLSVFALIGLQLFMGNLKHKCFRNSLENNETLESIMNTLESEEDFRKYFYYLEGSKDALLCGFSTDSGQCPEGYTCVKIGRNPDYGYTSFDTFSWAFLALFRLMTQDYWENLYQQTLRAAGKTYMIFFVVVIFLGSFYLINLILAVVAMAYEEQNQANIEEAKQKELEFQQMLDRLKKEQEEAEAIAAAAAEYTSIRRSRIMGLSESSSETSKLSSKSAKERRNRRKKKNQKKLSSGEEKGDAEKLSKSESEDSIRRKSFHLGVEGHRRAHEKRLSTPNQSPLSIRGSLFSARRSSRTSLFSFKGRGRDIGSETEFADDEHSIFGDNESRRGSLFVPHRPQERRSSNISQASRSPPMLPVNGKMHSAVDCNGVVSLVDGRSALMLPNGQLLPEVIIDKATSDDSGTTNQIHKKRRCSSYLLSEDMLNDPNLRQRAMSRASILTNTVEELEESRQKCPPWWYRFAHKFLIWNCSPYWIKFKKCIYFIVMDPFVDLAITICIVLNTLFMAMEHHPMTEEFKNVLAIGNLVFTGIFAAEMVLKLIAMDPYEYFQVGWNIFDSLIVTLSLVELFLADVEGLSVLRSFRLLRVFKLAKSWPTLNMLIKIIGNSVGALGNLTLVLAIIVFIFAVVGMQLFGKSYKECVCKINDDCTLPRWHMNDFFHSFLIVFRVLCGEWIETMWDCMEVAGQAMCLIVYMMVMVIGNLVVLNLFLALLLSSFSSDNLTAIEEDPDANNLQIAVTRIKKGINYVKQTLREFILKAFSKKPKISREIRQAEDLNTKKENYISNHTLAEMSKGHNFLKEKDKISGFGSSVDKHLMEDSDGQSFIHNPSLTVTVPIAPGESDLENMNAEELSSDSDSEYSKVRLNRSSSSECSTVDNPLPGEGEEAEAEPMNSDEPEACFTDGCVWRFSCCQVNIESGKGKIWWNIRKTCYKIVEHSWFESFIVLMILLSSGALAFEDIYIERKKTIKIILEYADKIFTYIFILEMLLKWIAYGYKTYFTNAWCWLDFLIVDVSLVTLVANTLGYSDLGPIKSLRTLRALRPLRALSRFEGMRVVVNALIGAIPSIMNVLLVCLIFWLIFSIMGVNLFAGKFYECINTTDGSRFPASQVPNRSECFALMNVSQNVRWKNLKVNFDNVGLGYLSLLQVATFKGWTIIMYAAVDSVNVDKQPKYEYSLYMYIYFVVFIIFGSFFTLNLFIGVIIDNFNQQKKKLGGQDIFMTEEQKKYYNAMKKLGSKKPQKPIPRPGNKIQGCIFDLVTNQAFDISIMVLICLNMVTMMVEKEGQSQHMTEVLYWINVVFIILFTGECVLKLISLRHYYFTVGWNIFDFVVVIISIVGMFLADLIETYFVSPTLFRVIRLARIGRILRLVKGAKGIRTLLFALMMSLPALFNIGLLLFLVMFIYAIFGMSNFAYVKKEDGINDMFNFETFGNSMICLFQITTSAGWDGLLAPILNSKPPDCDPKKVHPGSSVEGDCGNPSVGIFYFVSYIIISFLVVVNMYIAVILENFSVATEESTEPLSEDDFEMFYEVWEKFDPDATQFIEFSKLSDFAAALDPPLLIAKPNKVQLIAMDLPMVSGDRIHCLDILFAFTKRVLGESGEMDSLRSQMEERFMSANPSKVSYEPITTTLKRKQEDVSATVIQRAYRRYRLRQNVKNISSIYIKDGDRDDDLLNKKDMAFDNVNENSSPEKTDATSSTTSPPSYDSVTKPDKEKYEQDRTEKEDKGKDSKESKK

For `COc1cc(Oc2ccc(F)c(F)c2)ccc1-c1nccc2cc(S(=O)(=O)Nc3ccncn3)ccc12` [Example 175, 1-(4-(3,4-difluorophenoxy)-2-methoxyphenyl)-N-4-pyrimidinyl-6-isoquinolinesulfonamide], the IC50 (Nav 1.7; in-vitro PX (PatchXpress) data) was 197 nM and the IC50 (Nav 1.5; in-vitro PX (PatchXpress) data) was > 10000 nM.

`COc1cc(-c2cccc(F)c2)c(Cl)cc1-c1nncc2cc(S(=O)(=O)Nc3ccon3)ccc12` [Example 10, 1-(2-CHLORO-3′-FLUORO-5-METHOXY-[1,1′-BIPHENYL]-4-YL)-N-(ISOXAZOL-3-YL)PHTHALAZINE-6-SULFONAMIDE] was tested, and the IC50 (Nav 1.7; in-vitro PX data) was 84.1 nM and the IC50 (Nav 1.5; in-vitro PX data) was > 10000 nM.

For `COc1cc(-c2cccc(F)c2)c(C#N)cc1-c1ncnc2cc(S(=O)(=O)Nc3ccon3)ccc12` [Example 203, 4-(2-cyano-3′-fluoro-5-methoxy-4-biphenylyl)-N-3-isoxazolyl-7-quinazolinesulfonamide], the IC50 (Nav 1.7; in-vitro PX (PatchXpress) data) was 28.8 nM and the IC50 (Nav 1.5; in-vitro PX (PatchXpress) data) was > 10000 nM.

For `COc1cc(-c2cc(C)cc(Cl)c2)c(C#N)cc1-c1nccc2cc(S(=O)(=O)Nc3ccon3)ccc12` [Example 114, 1-(3′-chloro-2-cyano-5-methoxy-5′-methyl-4-biphenylyl)-N-3-isoxazolyl-6-isoquinolinesulfonamide], the IC50 (Nav 1.7; in-vitro PX data) was 28.8 nM and the IC50 (Nav 1.5; in-vitro PX data) was > 10000 nM.

With `COc1cc(-c2cc(F)cc(F)c2)ccc1-c1nccc2cc(S(=O)(=O)Nc3ncc(F)cn3)ccc12` [Example 135, 1-(3′,5′-difluoro-3-methoxy-4-biphenylyl)-N-(5-fluoro-2-pyrimidinyl)-6-isoquinolinesulfonamide] the IC50 (Nav 1.7; in-vitro PX data) was 378 nM and the IC50 (Nav 1.5; in-vitro PX data) was > 10000 nM.

In the case of `COc1cc(-c2ccc(F)cc2)c(C#N)cc1-c1nccc2cc(S(=O)(=O)Nc3ccncn3)ccc12` [Example 186, 1-(2-cyano-4′-fluoro-5-methoxy-4-biphenylyl)-N-4-pyrimidinyl-6-isoquinolinesulfonamide], the IC50 (Nav 1.7; in-vitro PX (PatchXpress) data) is reported as 150 nM and the IC50 (Nav 1.5; in-vitro PX (PatchXpress) data) is reported as > 10000 nM.

In the case of `COc1cc(-c2cccc(F)c2)c(Cl)cc1-c1nccc2cc(S(=O)(=O)Nc3ncon3)ccc12` [Example 7, 1-(2-CHLORO-3′-FLUORO-5-METHOXY-[1,1′-BIPHENYL]-4-YL)-N-(1,2,4-OXADIAZOL-3-YL)ISOQUINOLINE-6-SULFONAMIDE 2,2,2-TRIFLUOROACETATE], the IC50 (Nav 1.7) is reported as 47.7 nM and the IC50 (Nav 1.5; in-vitro PX data) is reported as > 10000 nM.

For `COc1nc(NC2CCCCC2)ccc1-c1nccc2cc(S(=O)(=O)Nc3ccncn3)ccc12` [Example 73, 1-(6-(cyclohexylamino)-2-methoxy-3-pyridinyl)-N-4-pyrimidinyl-6-isoquinolinesulfonamide], the IC50 (Nav 1.7; PatchXpress (PX), in vitro) was 436 nM and the IC50 (Nav 1.5; PatchXpress (PX), in vitro) was > 10000 nM.

With `COc1cc(-c2cc(F)cc(F)c2)ccc1-c1nccc2cc(S(=O)(=O)Nc3cnsn3)ccc12` [Example 129, 1-(3′,5′-difluoro-3-methoxy-4-biphenylyl)-N-1,2,5-thiadiazol-3-yl-6-isoquinolinesulfonamide] the IC50 (Nav 1.7; in-vitro PX data) was 428 nM and the IC50 (Nav 1.5; in-vitro PX data) was > 10000 nM.

`COc1cc(Oc2ccc(C)c(F)c2)ccc1-c1nccc2cc(S(=O)(=O)Nc3nncs3)ccc12` [Example 194, 1-(4-(3-fluoro-4-methylphenoxy)-2-methoxyphenyl)-N-1,3,4-thiadiazol-2-yl-6-isoquinolinesulfonamide] was tested, and the IC50 (Nav 1.7; in-vitro PX (PatchXpress) data) was 133 nM and the IC50 (Nav 1.5; in-vitro PX (PatchXpress) data) was > 10000 nM.

`COc1cc(-c2ccc(Cl)c(F)c2)c(C#N)cc1-c1nccc2cc(S(=O)(=O)Nc3ccncn3)ccc12` [Example 154, 1-(4′-chloro-2-cyano-3′-fluoro-5-methoxy-4-biphenylyl)-N-4-pyrimidinyl-6-isoquinolinesulfonamide] was tested, and the IC50 (Nav 1.7; in-vitro Nav 1.7 PX data) was 43.5 nM and the IC50 (Nav 1.5; in-vitro Nav 1.5 PX data) was > 30000 nM.

For `COc1cc(-c2cccc(F)c2)c(Cl)cc1-c1ncc(C#N)c2cc(S(=O)(=O)Nc3ccon3)ccc12` [Example 27, 1-(2-CHLORO-3′-FLUORO-5-METHOXY-[1,1′-BIPHENYL]-4-YL)-4-CYANO-N-(ISOXAZOL-3-YL)ISOQUINOLINE-6-SULFONAMIDE], the IC50 (Nav 1.7) was 282 nM and the IC50 (Nav 1.5; in-vitro PX) was > 10000 nM.

In the case of `N#CCOc1cc(-c2cccc(F)c2)ccc1-c1nccc2cc(S(=O)(=O)Nc3ccncn3)ccc12` [Example 208, 1-(3-(cyanomethoxy)-3′-fluoro-4-biphenylyl)-N-4-pyrimidinyl-6-isoquinolinesulfonamide], the IC50 (Nav 1.7; in-vitro PX) is reported as 230 nM and the IC50 (Nav 1.5; in-vitro PX) is reported as > 30000 nM.

With `COc1cc(-c2cccc(C(F)(F)F)c2)c(F)cc1-c1nn(C)c(=O)c2cc(S(=O)(=O)Nc3ccon3)ccc12` [Example 25, 1-(2-FLUORO-5-METHOXY-3′-(TRIFLUOROMETHYL)-[1,1′-BIPHENYL]-4-YL)-N-(ISOXAZOL-3-YL)-3-METHYL-4-OXO-3,4-DIHYDROPHTHALAZINE-6-SULFONAMIDE] the IC50 (Nav 1.7) was 94.1 nM and the IC50 (Nav 1.5; in-vitro PX) was > 10000 nM.

For `COc1nc(N2CCC(F)(F)C2)c(Cl)cc1-c1nccc2cc(S(=O)(=O)Nc3nncs3)ccc12` [Example 237, 1-(5-chloro-6-(3,3-difluoro-1-pyrrolidinyl)-2-methoxy-3-pyridinyl)-N-1,3,4-thiadiazol-2-yl-6-isoquinolinesulfonamide], the IC50 (Nav 1.7; in-vitro PX) was 336 nM and the IC50 (Nav 1.5; in-vitro PX) was > 30000 nM.

`COc1cc(-c2ccc(-c3nccc4cc(S(=O)(=O)Nc5nncs5)ccc34)c(OC)c2)c(F)cn1` [Example 189, 1-(4-(5-fluoro-2-methoxy-4-pyridinyl)-2-methoxyphenyl)-N-1,3,4-thiadiazol-2-yl-6-isoquinolinesulfonamide] was tested, and the IC50 (Nav 1.7; in-vitro PX (PatchXpress) data) was 394 nM and the IC50 (Nav 1.5; in-vitro PX (PatchXpress) data) was > 30000 nM.

With `COc1cc(-c2cc(C)cc(F)c2)c(C#N)cc1-c1nccc2cc(S(=O)(=O)Nc3ccon3)ccc12` [Example 77, 1-(2-cyano-3′-fluoro-5-methoxy-5′-methyl-4-biphenylyl)-N-3-isoxazolyl-6-isoquinolinesulfonamide] the IC50 (Nav 1.7; PatchXpress (PX), in vitro) was 72.5 nM and the IC50 (Nav 1.5; PatchXpress (PX), in vitro) was > 10000 nM.

With `COc1cc(-c2cccc(F)c2)c(Cl)cc1-c1ncnc2cc(S(=O)(=O)Nc3ncon3)ccc12` [Example 26, 4-(2-CHLORO-3′-FLUORO-5-METHOXY-[1,1′-BIPHENYL]-4-YL)-N-(1,2,4-OXADIAZOL-3-YL)QUINAZOLINE-7-SULFONAMIDE] the IC50 (Nav 1.7; in-vitro PX) was 85 nM and the IC50 (Nav 1.5; in-vitro PX) was > 10000 nM.

With `COc1ccc(F)cc1-c1cc(OC)c(-c2nccc3cc(S(=O)(=O)Nc4ccncn4)ccc23)cc1C#N` [Example 162, 1-(2-cyano-5′-fluoro-2′,5-dimethoxy-4-biphenylyl)-N-4-pyrimidinyl-6-isoquinolinesulfonamide] the IC50 (Nav 1.7; in-vitro Nav 1.7 PX data) was 470 nM and the IC50 (Nav 1.5; in-vitro Nav 1.5 PX data) was > 10000 nM.

In the case of `COc1cc(Cl)c(-c2cccc(F)c2)cc1-c1nccc2cc(S(=O)(=O)Nc3ncccn3)ccc12` [Example 122, 1-(6-chloro-3′-fluoro-4-methoxy-3-biphenylyl)-N-2-pyrimidinyl-6-isoquinolinesulfonamide], the IC50 (Nav 1.7; in-vitro PX data) is reported as 112 nM and the IC50 (Nav 1.5; in-vitro PX data) is reported as > 10000 nM.

`COc1cc(-c2ccc(F)c(Cl)c2)c(C#N)cc1-c1nccc2cc(S(=O)(=O)Nc3ccncn3)ccc12` [Example 158, 1-(3′-chloro-2-cyano-4′-fluoro-5-methoxy-4-biphenylyl)-N-4-pyrimidinyl-6-isoquinolinesulfonamide] gave an IC50 (Nav 1.7; in-vitro Nav 1.7 PX data) of 19.4 nM and an IC50 (Nav 1.5; in-vitro Nav 1.5 PX data) of 5850 nM.

For `COc1cc(-c2cc(F)cnc2OC)c(C#N)cc1-c1ncnc2cc(S(=O)(=O)Nc3nncs3)ccc12` [Example 20, 4-(5-CYANO-4-(5-FLUORO-2-METHOXYPYRIDIN-3-YL)-2-METHOXYPHENYL)-N-(1,3,4-THIADIAZOL-2-YL)QUINAZOLINE-7-SULFONAMIDE], the IC50 (Nav 1.7) was 182 nM and the IC50 (Nav 1.5; in-vitro PX (PatchXpress) data) was > 10000 nM.

With `COc1cc(-c2cc(F)cc(F)c2)c(C#N)cc1-c1nccc2cc(S(=O)(=O)Nc3ccncn3)ccc12` [Example 28, 1-(2-CYANO-3′,5′-DIFLUORO-5-METHOXY-[1,1′-BIPHENYL]-4-YL)-N-(PYRIMIDIN-4-YL)ISOQUINOLINE-6-SULFONAMIDE] the IC50 (Nav 1.7) was 144 nM and the IC50 (Nav 1.5; in-vitro Nav 1.5 PX data) was > 10000 nM.

`COc1cc(-c2cccc(C(F)(F)F)c2)c(C#N)cc1-c1ncnc2cc(S(=O)(=O)Nc3ccon3)ccc12` [Example 211, 4-(2-cyano-5-methoxy-3′-(trifluoromethyl)-4-biphenylyl)-N-3-isoxazolyl-7-quinazolinesulfonamide] was tested, and the IC50 (Nav 1.7; in-vitro PX) was 16.9 nM and the IC50 (Nav 1.5; in-vitro PX) was > 10000 nM.

`COc1cc(-c2cccc(C)c2)c(C#N)cc1-c1nccc2cc(S(=O)(=O)Nc3nncs3)ccc12` [Example 217, 1-(2-cyano-5-methoxy-3′-methyl-4-biphenylyl)-N-1,3,4-thiadiazol-2-yl-6-isoquinolinesulfonamide] was tested, and the IC50 (Nav 1.7; in-vitro PX) was 22.3 nM and the IC50 (Nav 1.5; in-vitro PX) was > 10000 nM.

For `COc1nc(N2CC(F)(F)C2)c(Cl)cc1-c1nccc2cc(S(=O)(=O)Nc3nncs3)ccc12` [Example 236, 1-(5-chloro-6-(3,3-difluoro-1-azetidinyl)-2-methoxy-3-pyridinyl)-N-1,3,4-thiadiazol-2-yl-6-isoquinolinesulfonamide], the IC50 (Nav 1.7; in-vitro PX) was 382 nM and the IC50 (Nav 1.5; in-vitro PX) was > 30000 nM.

For `COc1cc(-c2cccc(C(F)(F)F)c2)c(C#N)cc1-c1nccc2cc(S(=O)(=O)Nc3ccon3)ccc12` [Example 1, 1-(2-CYANO-5-METHOXY-3′-(TRIFLUOROMETHYL)-[1,1′-BIPHENYL]-4-YL)-N-(ISOXAZOL-3-YL)ISOQUINOLINE-6-SULFONAMIDE], the IC50 (Nav 1.7; in-vitro Nav 1.7 PX data) was 54.7 nM and the IC50 (Nav 1.5; in-vitro Nav 1.5 PX data) was > 10000 nM.

`COc1cc(-c2cccc(F)c2)c(Cl)cc1-c1ccnc2cc(S(=O)(=O)Nc3ccon3)ccc12` [Example 239, 4-(2-chloro-3′-fluoro-5-methoxy-4-biphenylyl)-N-3-isoxazolyl-7-quinolinesulfonamide] gave an IC50 (Nav 1.7; in-vitro PX) of 115 nM and an IC50 (Nav 1.5; in-vitro PX) of 11200 nM.

For `COc1cc(-c2cccc(F)c2)c(C#N)cc1-c1ncnc2cc(S(=O)(=O)Nc3nncs3)ccc12` [Example 241, 4-(2-cyano-3′-fluoro-5-methoxy-4-biphenylyl)-N-1,3,4-thiadiazol-2-yl-7-quinazolinesulfonamide], the IC50 (Nav 1.7; in-vitro PX) was 69.1 nM and the IC50 (Nav 1.5; in-vitro PX) was > 10000 nM.

For `COc1cc(-c2ccccc2)ccc1-c1nccc2cc(S(=O)(=O)Nc3ccon3)ccc12` [Example 49, N-(ISOXAZOL-3-YL)-1-(3-METHOXY-[1,1′-BIPHENYL]-4-YL)ISOQUINOLINE-6-SULFONAMIDE], the IC50 (Nav 1.7; PatchXpress (PX), in vitro) was 311 nM and the IC50 (Nav 1.5; PatchXpress (PX), in vitro) was > 10000 nM.

In the case of `COc1cc(Oc2ccccc2C)ccc1-c1nccc2cc(S(=O)(=O)Nc3ccncn3)ccc12` [Example 170, 1-(2-methoxy-4-(2-methylphenoxy)phenyl)-N-4-pyrimidinyl-6-isoquinolinesulfonamide], the IC50 (Nav 1.7; in-vitro Nav 1.7 PX data) is reported as 171 nM and the IC50 (Nav 1.5; in-vitro Nav 1.5 PX data) is reported as > 10000 nM.

Source: patent US9776995B2, “Bicyclic sulfonamide compounds as sodium channel inhibitors” (AMGEN INC., priority 2013, dated 2017)
